Experimental data as given in patent US8436043B2 (Takeda Pharmaceutical Company Limited, priority 2008, dated 2013).

Target: T1, human glucagon receptor (Homo sapiens, UniProt P47871)
T1 construct: made in house; host or cells: FreeStyle CHO cells, transient transfection with pMSRαneo/hGCGR; membrane fraction (35,000 rpm pellet)
Assay: Glucagon binding inhibitory activity ([125I]-glucagon binding to glucagon receptor membrane protein)
Conditions: human glucagon receptor membrane protein, [125I]-glucagon, 90 min room temperature
Description: The glucagon binding inhibitory action of the compound of the present invention was evaluated by the following method.
(1) Cloning of Human Glucagon Receptor Gene
Human glucagon receptor gene was cloned by PCR reaction using human pancreas Marathon-ready cDNA (Clontech) as a template and the following primer set.
PCR reaction was performed using Advantage 2 polymerase (Clontech) and according to the attached protocol. The obtained PCR product was electrophoresed on an agarose gel (1%). An about 1.4 kb of DNA fragment containing a glucagon receptor gene was recovered from the gel and digested with restriction enzymes EcoRI and NotI. DNA treated with the restriction enzymes was electrophoresed on an agarose gel (1%). An about 1.4 kb of DNA fragment was recovered and ligated to plasmid pMSRαneo digested with restriction enzymes EcoRI and NotI to construct a human-type glucagon receptor expression plasmid DNA “pMSRαneo/hGCGR”.
(2) Preparation of Glucagon Receptor Membrane Protein
A human-type glucagon receptor was expressed using FreeStyle CHO Expression System (Invitrogen). A transient expression in FreeStyle CHO cell was performed using a human-type glucagon receptor expression plasmid DNA “pMSRαneo/hGCGR” and according to the manual attached to the FreeStyle CHO Expression System. The above-mentioned DNA was transfected and the cultured with shaking for 2 days (37° C., 8% CO2, 125 rpm). 2400 ml of culture medium was centrifuged at 2,000 rpm for 10 min and the cells were collected. The collected cells were washed with PBS, suspended in homogenate buffer [10 mM NaHCO3 (pH 7.4), 1 mM EDTA, Complete EDTA-free (Roche, 1 tablet/50 ml)] and disrupted by polytron cell disrupter (Kinematica AG). Disruption solution was centrifuged at 2,000 rpm for 10 min and the supernatant was collected.
(3) Measurement of Glucagon Binding Inhibitory Activity
The plate was stood for 90 min at room temperature. The reaction solution was transferred from the reaction plate to a 96 well unifilter GF/C plate (Perkin Elmer Inc.) using a cell harvester (Perkin Elmer Inc.) and the membrane fraction was collected on the filter by suction. The filter was presoaked in 2 mg/ml of polyethyleneimine to prevent non-specific adsorption of labeled ligand. The filter was washed 4 times with a reaction buffer and dried for 2 hr at 42° C. To each well was added 25 μl of scintillator (MicroScint0; Perkin Elmer Inc.), and the fluorescence amount was measured using a microplate scintillation counter (TopCount NXT™; Perkin Elmer Inc.).
In addition, the inhibitory rate (%) of the well added with the test compound (10 μM; containing 0.4% DMSO) was calculated, using the reaction rate of the well added only with 0.4% DMSO as 0% inhibitory rate, and the reaction rate of the well added with non-labeled glucagon (final concentration 1 μM) as 100% inhibitory rate.

T1 sequence (P47871 26-477): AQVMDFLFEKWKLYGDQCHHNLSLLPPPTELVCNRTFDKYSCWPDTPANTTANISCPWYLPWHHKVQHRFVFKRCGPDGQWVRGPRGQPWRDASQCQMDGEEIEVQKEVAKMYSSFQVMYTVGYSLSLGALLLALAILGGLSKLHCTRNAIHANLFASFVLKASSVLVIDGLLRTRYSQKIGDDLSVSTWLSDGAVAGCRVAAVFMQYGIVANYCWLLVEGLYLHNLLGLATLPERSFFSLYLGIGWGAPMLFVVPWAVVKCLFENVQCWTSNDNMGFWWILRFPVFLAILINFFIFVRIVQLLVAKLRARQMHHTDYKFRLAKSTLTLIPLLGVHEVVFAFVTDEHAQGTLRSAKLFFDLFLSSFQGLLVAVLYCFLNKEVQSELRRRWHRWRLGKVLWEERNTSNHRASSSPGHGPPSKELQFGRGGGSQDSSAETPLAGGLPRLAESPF

IC50 | Compound
320 nM | CN(CCC(=O)O)C(=O)c1ccc(NC(c2cn(-c3ccc(OC(F)(F)F)cc3)nc2OCc2ccccc2)C2CCCCC2)cc1 (stereo not shown) [Example 61, 3-{[(4-{[{3-(benzyloxy)-1-[4-(trifluoromethoxy)phenyl]-1H-pyrazol-4-yl}(cyclohexyl)methyl]amino}phenyl)carbonyl](methyl)amino}-propanoic acid]
2300 nM | Cc1nn(Cc2ccccc2)cc1C(Nc1ccc(C(=O)NCCC(=O)O)cc1)C1CCCCC1 (stereo not shown) [Example 41, 3-{[(4-{[(1-benzyl-3-methyl-1H-pyrazol-4-yl)(cyclohexyl)methyl]amino}phenyl)carbonyl]amino}propanoic acid]

Same assay, conditions: test compound 10 μM; 0.4% DMSO = 0%, non-labeled glucagon 1 μM = 100%

inhibitory rate (%) at 10 μM | Compound
89% | Cc1c(C(Nc2ccc(C(=O)N(C)CCC(=O)O)cc2)C(C)C)oc2ccc(OCc3ccccc3)cc12 (stereo not shown) [Example A86, 3-[{[4-({1-[5-(benzyloxy)-3-methyl-1-benzofuran-2-yl]-2-methylpropyl}amino)phenyl]carbonyl}(methyl)amino]propanoic acid]
78% | Cc1c(C(Nc2ccc(C(=O)N(C)CCC(=O)O)cc2)C2CCCCC2)oc2ccc(F)cc12 (stereo not shown) [Example A46, 3-{[(4-{[cyclohexyl(5-fluoro-3-methyl-1-benzofuran-2-yl)methyl]amino}phenyl)carbonyl](methyl)amino}propanoic acid]

Same assay, conditions: test compound 10 μM; 0.4% DMSO = 0%, non-labeled glucagon 1 μM = 100%; read-out: inhibitory rate (%) at 10 μM

Compound | inhibition at 10 µM
Cc1nn(-c2ccc(Cl)cc2)cc1C(Nc1ccc(C(=O)NCCC(=O)O)cc1)C1CCCCC1 (stereo not shown) [Example 19, 3-({[4-({[1-(4-chlorophenyl)-3-methyl-1H-pyrazol-4-yl](cyclohexyl)methyl}amino)phenyl]carbonyl}amino)propanoic acid] | 80%
COc1ccccc1-n1cc(C(Nc2ccc(C(=O)N(C)CCC(=O)O)cc2)C2CCCCC2)c(C)n1 (stereo not shown) [Example 72, 3-[{[4-({[1-(2-methoxyphenyl)-3-methyl-1H-pyrazol-4-yl](cyclohexyl)methyl}amino)phenyl]carbonyl}(methyl)amino]-propanoic acid] | 51%
COc1cccc(-n2cc(C)c(C(Nc3ccc(C(=O)N(C)CCC(=O)O)cc3)C3CCCCC3)n2)c1 (stereo not shown) [Example 75, 3-[{[4-({cyclohexyl[1-(3-methoxyphenyl)-4-methyl-1H-pyrazol-3-yl]methyl}amino)phenyl]carbonyl}(methyl)amino]propanoic acid] | 61%
CCc1nn(-c2cc(F)cc(F)c2)cc1C(Nc1ccc(C(=O)NCCC(=O)O)cc1)C1CCCCC1 (stereo not shown) [Example 88, 3-({[4-({cyclohexyl[1-(3,5-difluorophenyl)-3-ethyl-1H-pyrazol-4-yl]methyl}amino)phenyl]carbonyl}amino)propanoic acid] | 71%
CN(CCC(=O)O)C(=O)c1ccc(NC(c2cn(-c3ccc(OC(F)(F)F)cc3)nc2OCc2ccccc2)C2CCCCC2)cc1 (stereo not shown) [Example 61, 3-{[(4-{[{3-(benzyloxy)-1-[4-(trifluoromethoxy)phenyl]-1H-pyrazol-4-yl}(cyclohexyl)methyl]amino}phenyl)carbonyl](methyl)amino}-propanoic acid] | 75%
CCCc1nn(-c2ccc(C(F)(F)F)cn2)cc1C(Nc1ccc(C(=O)NCCC(=O)O)cc1)C1CCCCC1 (stereo not shown) [Example 5, 3-[({4-[(cyclohexyl{3-propyl-1-[5-(trifluoromethyl)pyridin-2-yl]-1H-pyrazol-4-yl}methyl)amino]phenyl}carbonyl)amino]propanoic acid] | 73%
Cc1nn(Cc2ccccc2)cc1C(Nc1ccc(C(=O)NCCC(=O)O)cc1)C1CCCCC1 (stereo not shown) [Example 41, 3-{[(4-{[(1-benzyl-3-methyl-1H-pyrazol-4-yl)(cyclohexyl)methyl]amino}phenyl)carbonyl]amino}propanoic acid] | 60%
COc1ccccc1-n1cc(C)c(C(Nc2ccc(C(=O)N(C)CCC(=O)O)cc2)C2CCCCC2)n1 (stereo not shown) [Example 77, 3-[{[4-({cyclohexyl[1-(2-methoxyphenyl)-4-methyl-1H-pyrazol-3-yl]methyl}amino)phenyl]carbonyl}(methyl)amino]propanoic acid] | 55%

The next lines start with the values.

inhibition at 10 µM | Compound
85% | Cc1c(C(Nc2ccc(C(=O)N(C)CCC(=O)O)cc2)C2CCCCC2)sc2ccccc12 (stereo not shown) [Example A13, 3-{[(4-{[cyclohexyl(3-methyl-1-benzothiophen-2-yl)methyl]amino}phenyl)carbonyl](methyl)amino}propanoic acid]
84% | CCC(Nc1ccc(C(=O)N(C)CCC(=O)O)cc1)c1oc2ccc(OCc3ccccc3)cc2c1C (stereo not shown) [Example A179, 3-[{[4-({1-[5-(benzyloxy)-3-methyl-1-benzofuran-2-yl]propyl}amino)phenyl]carbonyl}(methyl)amino]propanoic acid]
71% | O=C(O)CCNC(=O)c1ccc(NC(c2nn(C3CCCCC3)c3ccccc23)C2CCCCC2)cc1 (stereo not shown) [Example A19, 3-{[(4-{[cyclohexyl(1-cyclohexyl-1H-indazol-3-yl)methyl]amino}phenyl)carbonyl]amino}propanoic acid]
76% | O=C(O)CCNC(=O)c1ccc(NC(c2csc3ccccc23)C2CCCCC2)cc1 (stereo not shown) [Example A1, 3-{[(4-{[1-benzothiophen-3-yl(cyclohexyl)methyl]amino}phenyl)carbonyl]amino}propanoic acid]
88% | COc1ncccc1-c1ccc2oc(C(Nc3ccc(C(=O)N(C)CCC(=O)O)cc3)C(C)C)c(C)c2c1 (stereo not shown) [Example A183, 3-[{[4-({1-[5-(2-methoxypyridin-3-yl)-3-methyl-1-benzofuran-2-yl]-2-methylpropyl}amino)phenyl]carbonyl}(methyl)amino]propanoic acid]
67% | COCc1c(C(Nc2ccc(C(=O)NCCC(=O)O)cc2)C2CCCCC2)oc2ccc(F)cc12 (stereo not shown) [Example A47, 3-({[4-({cyclohexyl[5-fluoro-3-(methoxymethyl)-1-benzofuran-2-yl]methyl}amino)phenyl]carbonyl}amino)propanoic acid]
72% | Cc1c(C(Nc2ccc(C(=O)N(C)CCC(=O)O)cc2)C(C)C)oc2ccc(F)cc12 (stereo not shown) [Example A192]
69% | COCCOc1ccc2oc(C(Nc3ccc(C(=O)NCCC(=O)O)cc3)C3CCCCC3)c(C)c2c1 (stereo not shown) [Example A149, 3-[{[4-({cyclohexyl[5-(2-methoxyethoxy)-3-methyl-1-benzofuran-2-yl]methyl}amino)phenyl]carbonyl}amino]propanoic acid]
78% | CSCCCOc1ccc2oc(C(Nc3ccc(C(=O)NCCC(=O)O)cc3)C3CCCCC3)c(C)c2c1 (stereo not shown) [Example A151, 3-[({4-[(cyclohexyl{3-methyl-5-[3-(methylsulfanyl)propoxy]-1-benzofuran-2-yl}methyl)amino]phenyl}carbonyl)amino]propanoic acid]
77% | Cc1ccc2oc(C(Nc3ccc(C(=O)NCCC(=O)O)cc3)C3CCCCC3)c(C)c2c1 (stereo not shown) [Example A90, 3-{[(4-{[cyclohexyl(3,5-dimethyl-1-benzofuran-2-yl)methyl]amino}phenyl)carbonyl]amino}propanoic acid]
87% | Cc1c(C(Nc2ccc(C(=O)NCCC(=O)O)cc2)C2CCCCC2)sc2ncccc12 (stereo not shown) [Example A142, 3-{[(4-{[cyclohexyl(3-methylthieno[2,3-b]pyridin-2-yl)methyl]amino}phenyl)carbonyl]amino}propanoic acid]
82% | Cc1c(C(Nc2ccc(C(=O)NCCC(=O)O)cc2)C2CCCCC2)sc2cccnc12 (stereo not shown) [Example A144, 3-{[(4-{[cyclohexyl(3-methylthieno[3,2-b]pyridin-2-yl)methyl]amino}phenyl)carbonyl]amino}propanoic acid]
66% | CN(CCC(=O)O)C(=O)c1ccc(NC(c2cc3ccccc3o2)C2CCCCC2)cc1 (stereo not shown) [Example A4, 3-{[(4-{[1-benzofuran-2-yl(cyclohexyl)methyl]amino}phenyl)carbonyl](methyl)amino}-propanoic acid]
56% | Cc1c(C(CC(C)C)Nc2ccc(C(=O)N(C)CCC(=O)O)cn2)sc2ccccc12 (stereo not shown) [Example A38, 3-{methyl[(6-{[3-methyl-1-(3-methyl-1-benzothiophen-2-yl)butyl]amino}pyridin-3-yl)carbonyl]amino}propanoic acid]
87% | Cc1c(C(Nc2ccc(C(=O)N(C)CCC(=O)O)cc2)C2CCCCC2)oc2ccc(NCc3ccccc3)cc12 (stereo not shown) [Example A131, 3-[{[4-({[5-(benzylamino)-3-methyl-1-benzofuran-2-yl](cyclohexyl)methyl}amino)phenyl]carbonyl}(methyl)amino]-propanoic acid]
82% | Cc1c(C(Nc2ccc(C(=O)N(C)CCC(=O)O)cc2)C2CCCCC2)oc2ccc(OCc3ccccc3)cc12 (stereo not shown) [Example A154, 3-[{[4-({[5-(benzyloxy)-3-methyl-1-benzofuran-2-yl](cyclohexyl)methyl}amino)phenyl]carbonyl}(methyl)amino]-propanoic acid]
